Data from patent US20210030700A1, “COMPOSITION FOR PREVENTING AND TREATMENT OF SPINAL CORD INJURY” (NEUROBIOGEN CO.,LTD, priority 2018, published 2021).

Legend:
Assay type in all cases: in vivo, Sprague-Dawley rats
[1] = tested on: spinal cord-injured rats and normal rats; experiment: Basso-Beattie-Bresnahan (BBB) locomotor rating behavior test
Method: (§1) The animal models of spinal cord injury herein used were adult male Sprague-Dawley rats weighing 180 to 200 g, and the rats were anesthetized by intraperitoneal injection of ketamine. Laminectomy was conducted on the T9 portion to expose the spinal cord, the spinal cord was compressed for 10 seconds using a dedicated forceps (self-closed forceps, Germany) to induce spinal cord injury, and then the muscles and skin were sutured.
(§2) Of the 50 spinal cord injury animal models in total, 5 were a non-drug-administered control group (Normal), 5 were a drug-administered control group (Normal/KDS2010), 20 were a non-drug-administered group subjected to spinal cord injury (SCI), and 20 were a drug-administered group subjected to spinal cord injury (SCI/KDS2010). 2 weeks after induction of spinal cord injury, a mixture of the drug and drinking water was administered at a dose of 10 mg/kg.
A motor function test was performed 10 times in total weekly for 10 weeks after spinal cord injury, and the recovery of hindlimb function in the animals was evaluated using the Basso-Beattie-Bresnahan (BBB) motor score. The BBB score is divided into 21 points in total, and is broadly classified into 3 steps. In the first recovery phase, the degree of the joint movement and whether or not the soles contact the floor was checked, in the second recovery phase, the degree of recovery of weighted gait was monitored, and in the final stage, the balance of the gait and the recovery of the tail were mainly observed. The neuropathic pain response test upon spinal cord injury was conducted through the measurement of a change in mechanical paw withdrawal using a dynamic plantar aesthesiometer and was conducted weekly for 3 weeks after the injury causing response to the soles. This test was conducted by applying a force of 0 to 50 g to the sole of the paw of the hindlimb using a needle with a diameter of 0.5 mm for 20 seconds. At this time, the force applied when the sole withdrawal occurred due to pain was measured.
A behavior test was performed using a Basso-Beattie-Bresnahan (BBB) locomotor rating system after administration of KDS2010 to spinal-cord-injured rats and normal rats in the same manner as in Example 1-3 above. The result of the behavior test was expressed as a BBB score.

spinal cord injury model [2] = experiment: Immunofluorescence staining for macrophage marker CD68 and microglia marker Ibal; settings: KDS2010-administered spinal cord injury model group
Method: as §1
When a spinal cord injury occurs, destroyed cells and cell clusters were observed inward from the injured site. These cells may cause an inflammatory reaction and interfere with regeneration from spinal cord injury. A test was conducted to investigate the effect of the drug KDS2010 on inflammatory reaction.
Specifically, the spinal cord injury model administered with KDS2010 was subjected to immunofluorescence staining to determine whether or not the cells were positive for the macrophage marker CD68 and the microglia marker Ibal.

spinal cord injury model [3] = experiment: BrdU immunofluorescence staining of spinal nerves, formation of new nerve cells; settings: spinal cord injury model treated with KDS2010; BrdU 50 mg/kg/day i.p.
Method: as §1
A test to determine whether or not treatment with KDS2010 has an effect of inducing differentiation of new nerve cells was conducted in order to investigate the effect of spinal cord regeneration.
Specifically, BrdU was administered at a dose of 50 mg/kg/day to test animals by i.p. injection one week before scarification, and spinal nerves were subjected to immunofluorescence staining and then observed.

[4] = tested on: spinal cord-injured rats and normal rats; experiment: Pain response evaluation using a dynamic plantar test
Method: as §1, with “sutured. […]” for “sutured.”
A motor function test was performed 10 times in total weekly for 10 weeks after spinal cord injury, and the recovery of hindlimb function in the animals was evaluated using the Basso-Beattie-Bresnahan (BBB) motor score. […] In the first recovery phase, the degree of the joint movement and whether or not the soles contact the floor was checked, in the second recovery phase, the degree of recovery of weighted gait was monitored, and in the final stage, the balance of the gait and the recovery of the tail were mainly observed. […] At this time, the force applied when the sole withdrawal occurred due to pain was measured.
A pain relief degree was measured using a pain response evaluation based on a dynamic plantar test after administration of KDS2010 to spinal-cord-injured rats and normal rats in the same manner as in Example 1-3 above.

spinal cord injury model [5] = experiment: Toluidine blue (TB) staining and TEM imaging, re-myelination of spinal cord injury site; settings: spinal cord injury model treated with KDS2010
Method: as §1
Specifically, the number of […], the number of cavities and a g-ratio were measured through toluidine blue (TB) staining and TEM imaging.

[6] = tested on: spinal cord-injured rats and normal rats; experiment: EC staining of the injured area (T9), myelination of spinal cord tissue
Method: as §1, §2
For EC staining (Eriochrome (Solochrome) cyanine staining), spinal cord tissue was obtained at 10 weeks after spinal cord injury, fixed with 4% paraformaldehyde, and dehydrated to perform freeze embedding. EC staining was performed on the injured area (thoracic vertebrae #9, T9) in 5 rats for the control group, 10 rats for the spinal cord-injured non-drug-administered group and 10 rats for the spinal cord-injured drug-administered group.
The EC staining is a staining method that can compare the areas of tissue and the myelinated part between groups because the myelinated part is stained in blue, whereas other nuclei, nerves, and non-myelinated parts appear in white.
EC staining was conducted on the injured area (thoracic vertebrae #9, T9) of the non-drug-administered control group, the drug-administered control group, the spinal cord-injured non-drug-administered group and the spinal cord-injured drug-administered group, in the same manner as in Example 1-4, and the results of myelinated parts were quantified.

[7] = SCI/KDS2010 vs SCI, 10 weeks after injury
[8] = drug-administered control group (Control/KDS2010), 10 weeks

## C[C@H](NCc1ccc(-c2ccc(C(F)(F)F)cc2)cc1)C(N)=O [KDS2010, (S)-2-(((4′-trifluoromethylbiphenyl-4-yl)methyl)amino)propanamide methanesulfonate]
[1]; SCI/KDS2010, last week (10 weeks after injury)
  gait and behavioral function in BBB test: balanced gait and restored behavioral function
[1]; SCI/KDS2010 vs SCI
  BBB score compared to spinal cord-injured group not administered with the drug: significantly improved
[1]; drug-administered control group (Normal/KDS2010), normal rats, 10 mg/kg in drinking water
  BBB score: 21 points
[1]; spinal cord-injured drug-administered group (SCI/KDS2010), 10 mg/kg in drinking water from 2 weeks after injury, starting at 5 weeks
  BBB score: ≥ 10 points
Spinal cord injury model [2]
  number of cells positive to CD68: significantly decreased
  number of cells positive to Ibal: significantly decreased
Spinal cord injury model [3]
  formation of new nerve cells: exhibited newly formed nerve cells
[4]; SCI/KDS2010 vs SCI
  threshold value for pain compared to spinal cord-injured non-drug-administered group: significantly increased
[4]; drug-administered control group (Normal/KDS2010), normal rats
  threshold value for pain: high threshold value
Spinal cord injury model [5]
  number of cavities: rapidly decreased
  number of myelinated exons: recovered to an almost normal value
Spinal cord injury model [5]; normal range 0.79±0.0005
  g-ratio: within the normal range
[6]; [7]
  total myelinated area compared to spinal cord-injured non-drug-administered group: increased
  total tissue area compared to spinal cord-injured non-drug-administered group: increased
[6]; [8]
  proportion of the total myelinated area to the total tissue area: large
  total myelinated area: large
  total tissue area: large
